This test concerns MV-4-11 cells. Nature of the test: Gene expression microarray analysis (Affymetrix PrimeView) and GSEA. Format: cell-based, human. On the set-up: RFU PODN (11730768_x_at) / Fold change /veh PODN (11730768_x_at) / RFU LINC00158 (11744669_a_at) / Fold change /veh LINC00158 (11744669_a_at) / RFU DUSP10 (11751237_a_at) / Fold change /veh DUSP10 (11751237_a_at) / RFU ID3 (11757404_x_at) / Fold change /veh ID3 (11757404_x_at) / RFU PLEKHG5 (11737974_s_at) / Fold change /veh PLEKHG5 (11737974_s_at) / RFU LRRC4B (11730491_at) / Fold change /veh LRRC4B (11730491_at) / RFU GIMAP4 (11747438_a_at) / Fold change /veh GIMAP4 (11747438_a_at) / RFU KRT8 (11758183_x_at) / Fold change /veh KRT8 (11758183_x_at) / RFU CNN1 (11734310_a_at) / Fold change /veh CNN1 (11734310_a_at) / RFU VPS37D (11726825_at) / Fold change /veh VPS37D (11726825_at) / RFU C10orf10 (11716522_x_at) / Fold change /veh C10orf10 (11716522_x_at) / RFU KIR2DL2 /// KIR2DL4 /// KIR2DL5A /// KIR2DL5B /// KIR2DS1 /// KIR2DS2 /// KIR2DS3 /// KIR2DS4 /// KIR3DL3 /// KIR3DL3 /// KIR3DS1 (11738374_at) / Fold change /veh KIR2DL2 /// KIR2DL4 /// KIR2DL5A /// KIR2DL5B /// KIR2DS1 /// KIR2DS2 /// KIR2DS3 /// KIR2DS4 /// KIR3DL3 /// KIR3DL3 /// KIR3DS1 (11738374_at) / RFU C1QL1 (11718748_at) / Fold change /veh C1QL1 (11718748_at) / RFU TMPRSS4 (11747572_a_at) / Fold change /veh TMPRSS4 (11747572_a_at) / RFU HAMP (11756126_x_at) / Fold change /veh HAMP (11756126_x_at) / RFU RNFT2 (11725882_a_at) / Fold change /veh RNFT2 (11725882_a_at) / RFU NR4A2 (11747474_a_at) / Fold change /veh NR4A2 (11747474_a_at) / RFU ABCC12 (11746883_a_at) / Fold change /veh ABCC12 (11746883_a_at) / RFU TMEM136 (11760407_x_at) / Fold change /veh TMEM136 (11760407_x_at) / RFU CLDN22 /// WWC2 (11732394_at) / Fold change /veh CLDN22 /// WWC2 (11732394_at) / RFU HLA-DPB1 (11760878_x_at) / Fold change /veh HLA-DPB1 (11760878_x_at) / RFU SPINT1 (11716480_a_at) / Fold change /veh SPINT1 (11716480_a_at) / RFU GAP43 (11754022_s_at) / Fold change /veh GAP43 (11754022_s_at) / RFU A4GNT (11735810_at) / Fold change /veh A4GNT (11735810_at) / RFU PRB3 (11715151_x_at) / Fold change /veh PRB3 (11715151_x_at) / RFU TUBB4B (11761932_at) / Fold change /veh TUBB4B (11761932_at) / RFU CAPN14 (11732068_a_at) / Fold change /veh CAPN14 (11732068_a_at) / RFU TMCC2 (11721928_a_at) / Fold change /veh TMCC2 (11721928_a_at) / RFU IRGQ (11745062_a_at) / Fold change /veh IRGQ (11745062_a_at) / RFU FAM174B (11720279_a_at) / Fold change /veh FAM174B (11720279_a_at) / RFU TMPRSS4 (11748680_a_at) / Fold change /veh TMPRSS4 (11748680_a_at) / RFU FAM212B (11763350_a_at) / Fold change /veh FAM212B (11763350_a_at) / RFU PLEKHG5 (11743358_a_at) / Fold change /veh PLEKHG5 (11743358_a_at) / RFU ZSCAN30 (11745921_a_at) / Fold change /veh ZSCAN30 (11745921_a_at) / RFU CMKLR1 (11741424_a_at) / Fold change /veh CMKLR1 (11741424_a_at) / RFU LOC101060620 /// MAPK8IP1 (11723275_at) / Fold change /veh LOC101060620 /// MAPK8IP1 (11723275_at) / RFU SPTSSB (11747773_x_at) / Fold change /veh SPTSSB (11747773_x_at) / RFU PRSS12 (11739890_at) / Fold change /veh PRSS12 (11739890_at) / RFU BIN1 (11741810_x_at) / Fold change /veh BIN1 (11741810_x_at) / RFU WNT11 (11732464_a_at) / Fold change /veh WNT11 (11732464_a_at) / RFU C10orf10 (11716521_a_at) / Fold change /veh C10orf10 (11716521_a_at) / RFU C5orf56 (11738089_at) / Fold change /veh C5orf56 (11738089_at) / RFU CYB561 (11721691_x_at) / Fold change /veh CYB561 (11721691_x_at) / RFU ANKRD19P (11752326_a_at) / Fold change /veh ANKRD19P (11752326_a_at) / RFU OR2T12 /// OR2T33 /// OR2T8 (11738714_s_at) / Fold change /veh OR2T12 /// OR2T33 /// OR2T8 (11738714_s_at) / RFU VCAN (11748164_a_at) / Fold change /veh VCAN (11748164_a_at) / RFU JSRP1 (11732532_at) / Fold change /veh JSRP1 (11732532_at) / RFU KRTAP10-11 (11738290_x_at) / Fold change /veh KRTAP10-11 (11738290_x_at) / RFU MYO3A (11730013_a_at) / Fold change /veh MYO3A (11730013_a_at) / RFU EBF3 (11725865_a_at) / Fold change /veh EBF3 (11725865_a_at) / RFU CAMK2N1 (11719241_x_at) / Fold change /veh CAMK2N1 (11719241_x_at) / RFU C5orf56 (11738088_a_at) / Fold change /veh C5orf56 (11738088_a_at) / RFU OLFML3 (11715873_a_at) / Fold change /veh OLFML3 (11715873_a_at) / RFU LOC100653217 /// NTM (11731650_a_at) / Fold change /veh LOC100653217 /// NTM (11731650_a_at) / RFU MAPK11 (11762145_a_at) / Fold change /veh MAPK11 (11762145_a_at) / RFU FIZ1 (11724087_x_at) / Fold change /veh FIZ1 (11724087_x_at) / RFU OASL (11726364_x_at) / Fold change /veh OASL (11726364_x_at) / RFU SOX15 (11748057_x_at) / Fold change /veh SOX15 (11748057_x_at) / RFU CD79A (11719716_a_at) / Fold change /veh CD79A (11719716_a_at) / RFU HIST1H1D (11736915_at) / Fold change /veh HIST1H1D (11736915_at) / RFU CASKIN2 (11723855_a_at) / Fold change /veh CASKIN2 (11723855_a_at) / RFU LOC730098 (11760151_x_at) / Fold change /veh LOC730098 (11760151_x_at) / RFU OR4N2 (11742367_at) / Fold change /veh OR4N2 (11742367_at) / RFU PRRT2 (11749266_a_at) / Fold change /veh PRRT2 (11749266_a_at) / RFU SNX32 (11753110_a_at) / Fold change /veh SNX32 (11753110_a_at) / RFU CDHR5 (11726645_a_at) / Fold change /veh CDHR5 (11726645_a_at) / RFU RCAN1 (11760418_a_at) / Fold change /veh RCAN1 (11760418_a_at) / RFU FAM167A (11723789_a_at) / Fold change /veh FAM167A (11723789_a_at) / RFU FAM26E (11764081_at) / Fold change /veh FAM26E (11764081_at) / RFU ISYNA1 (11749810_s_at) / Fold change /veh ISYNA1 (11749810_s_at) / RFU ACY1 (11761880_at) / Fold change /veh ACY1 (11761880_at) / RFU 11764098_at / Fold change /veh 11764098_at / RFU SAMD14 (11745864_x_at) / Fold change /veh SAMD14 (11745864_x_at) / RFU NPB (11741838_a_at) / Fold change /veh NPB (11741838_a_at) / RFU TMPRSS6 (11731388_a_at) / Fold change /veh TMPRSS6 (11731388_a_at) / RFU KRTAP10-2 (11738614_at) / Fold change /veh KRTAP10-2 (11738614_at) / RFU ARHGAP8 /// PRR5-ARHGAP8 (11727945_x_at) / Fold change /veh ARHGAP8 /// PRR5-ARHGAP8 (11727945_x_at) / RFU KRTAP5-7 /// NADSYN1 (11734609_at) / Fold change /veh KRTAP5-7 /// NADSYN1 (11734609_at) / RFU RASL12 (11751679_a_at) / Fold change /veh RASL12 (11751679_a_at) / RFU CDKN2B (11736163_a_at) / Fold change /veh CDKN2B (11736163_a_at) / RFU PRF1 (11729649_at) / Fold change /veh PRF1 (11729649_at) / RFU, ZNF638 /// ZNF638-IT1 / Fold change vs veh, ZNF638 /// ZNF638-IT1 / RFU, PANK3 / Fold change vs veh, PANK3 / RFU, SH3YL1 / Fold change vs veh, SH3YL1 / RFU, ZEB2 / Fold change vs veh, ZEB2 / RFU, NRIP1 / Fold change vs veh, NRIP1 / RFU, PTTG1IP / Fold change vs veh, PTTG1IP / RFU, CAPN2 / Fold change vs veh, CAPN2 / RFU, MED14 / Fold change vs veh, MED14 / RFU, SNORA58 / Fold change vs veh, SNORA58 / RFU, C1orf63 / Fold change vs veh, C1orf63 / RFU, LRRFIP1 / Fold change vs veh, LRRFIP1 / RFU, NDUFAF7 / Fold change vs veh, NDUFAF7 / RFU, SLC12A2 / Fold change vs veh, SLC12A2 / RFU, IBTK / Fold change vs veh, IBTK / RFU, ESF1 / Fold change vs veh, ESF1 / Fold change vs veh, TMEM50B / RFU, TAOK1 / Fold change vs veh, TAOK1 / RFU, ACBD3 / Fold change vs veh, ACBD3 / RFU, TMA16 / Fold change vs veh, TMA16 / RFU, RWDD3 / Fold change vs veh, RWDD3 / RFU, BCAT1 / Fold change vs veh, BCAT1 / RFU, EDEM3 / Fold change vs veh, EDEM3 / RFU, TMEM33 / Fold change vs veh, TMEM33 / RFU, WDR75 / Fold change vs veh, WDR75 / RFU, AHCTF1 / Fold change vs veh, AHCTF1 / RFU, TFRC / Fold change vs veh, TFRC / RFU, ZDHHC17 / Fold change vs veh, ZDHHC17 / RFU, NOM1 / Fold change vs veh, NOM1 / RFU, ARL8B / Fold change vs veh, ARL8B / RFU, ZBTB11 / Fold change vs veh, ZBTB11 / RFU, TAMM41 / Fold change vs veh, TAMM41 / RFU, KIAA1704 /// LOC100996395 / Fold change vs veh, KIAA1704 /// LOC100996395 / RFU, ING1 / Fold change vs veh, ING1 / RFU, TRMT61B / Fold change vs veh, TRMT61B / RFU, FUBP3 / Fold change vs veh, FUBP3 / RFU, TP53 / Fold change vs veh, TP53 / RFU, TNKS2 / Fold change vs veh, TNKS2 / RFU, ZFP14 / Fold change vs veh, ZFP14 / RFU, ACTR2 / Fold change vs veh, ACTR2 / RFU, PPP3R1 / Fold change vs veh, PPP3R1 / RFU, PIK3R1 / Fold change vs veh, PIK3R1 / RFU, HNRNPA1 / Fold change vs veh, HNRNPA1 / RFU, RNF170 / Fold change vs veh, RNF170 / RFU, ZNF28 / Fold change vs veh, ZNF28 / RFU, RNGTT / Fold change vs veh, RNGTT / RFU, OGT / Fold change vs veh, OGT / RFU, BRD1 / Fold change vs veh, BRD1 / RFU, MARS / Fold change vs veh, MARS / RFU, ZNF655 / Fold change vs veh, ZNF655 / RFU, FAHD1 / Fold change vs veh, FAHD1 / RFU, BDP1 / Fold change vs veh, BDP1 / RFU, LRRCC1 / Fold change vs veh, LRRCC1 / RFU, ARID1A / Fold change vs veh, ARID1A / RFU, ZNF146 / Fold change vs veh, ZNF146 / RFU, ZNF330 / Fold change vs veh, ZNF330 / RFU, GPN3 / Fold change vs veh, GPN3 / RFU, C9orf123 / Fold change vs veh, C9orf123 / RFU, N4BP2L2 / Fold change vs veh, N4BP2L2 / RFU, ARFIP1 / Fold change vs veh, ARFIP1 / RFU, FAM179B / Fold change vs veh, FAM179B / RFU, BCL10 / Fold change vs veh, BCL10 / RFU, UHRF1BP1L / Fold change vs veh, UHRF1BP1L / RFU, BET1 / Fold change vs veh, BET1 / RFU, CNOT2 / Fold change vs veh, CNOT2 / RFU, ZNF268 / Fold change vs veh, ZNF268 / Fold change vs veh, ZNF507 / RFU, DGCR2 / Fold change vs veh, DGCR2 / RFU, WDSUB1 / Fold change vs veh, WDSUB1 / Fold change vs veh, HSP90B1 /// MIR3652 / RFU, ADSS / Fold change vs veh, ADSS / RFU, GK / Fold change vs veh, GK / RFU, ZNF148 / Fold change vs veh, ZNF148 / RFU, TAF9 / Fold change vs veh, TAF9 / RFU, SLC1A5 / Fold change vs veh, SLC1A5 / RFU, SLMO2 / Fold change vs veh, SLMO2 / RFU, ABCC4 / Fold change vs veh, ABCC4 / RFU, LOC101060439 /// RAP1B / Fold change vs veh, LOC101060439 /// RAP1B / RFU, RFX7 / Fold change vs veh, RFX7 / RFU, GTPBP10 / Fold change vs veh, GTPBP10 / RFU, CNEP1R1 / Fold change vs veh, CNEP1R1 / RFU, BIVM-ERCC5 /// ERCC5 / Fold change vs veh, BIVM-ERCC5 /// ERCC5 / RFU, ILF3 / Fold change vs veh, ILF3 / RFU 11762660_at / Fold change /veh 11762660_at / RFU VCAN (11757783_s_at) / Fold change /veh VCAN (11757783_s_at) / RFU DDX43 (11728927_at) / Fold change /veh DDX43 (11728927_at) / RFU KRT8 (11758188_x_at) / Fold change /veh KRT8 (11758188_x_at) / RFU NKD1 (11759106_at) / Fold change /veh NKD1 (11759106_at) / RFU SRD5A1 (11742802_a_at) / Fold change /veh SRD5A1 (11742802_a_at) / RFU TPSAB1 /// TPSB2 (11721975_s_at) / Fold change /veh TPSAB1 /// TPSB2 (11721975_s_at) / RFU GSTM3 (11746129_a_at) / Fold change /veh GSTM3 (11746129_a_at) / RFU IL23R (11737362_x_at) / Fold change /veh IL23R (11737362_x_at) / RFU TMEM51 (11727254_a_at) / Fold change /veh TMEM51 (11727254_a_at) / RFU PIWIL2 (11732686_x_at) / Fold change /veh PIWIL2 (11732686_x_at) / RFU ORM1 (11744905_x_at) / Fold change /veh ORM1 (11744905_x_at) / RFU CCDC152 (11743942_at) / Fold change /veh CCDC152 (11743942_at) / RFU ECM1 (11717891_a_at) / Fold change /veh ECM1 (11717891_a_at) / RFU IL23R (11748794_a_at) / Fold change /veh IL23R (11748794_a_at) / RFU TNFAIP8L3 (11732012_x_at) / Fold change /veh TNFAIP8L3 (11732012_x_at) / RFU MBOAT4 (11741988_at) / Fold change /veh MBOAT4 (11741988_at) / RFU 11764193_at / Fold change /veh 11764193_at / RFU TMEM53 (11763286_at) / Fold change /veh TMEM53 (11763286_at) / RFU MAGEB2 (11727129_at) / Fold change /veh MAGEB2 (11727129_at) / RFU TMEM200A (11744735_a_at) / Fold change /veh TMEM200A (11744735_a_at) / RFU CCDC152 (11751479_a_at) / Fold change /veh CCDC152 (11751479_a_at) / RFU FAM211A (11726209_a_at) / Fold change /veh FAM211A (11726209_a_at) / RFU RGS16 (11746705_a_at) / Fold change /veh RGS16 (11746705_a_at) / RFU VCAN (11755009_s_at) / Fold change /veh VCAN (11755009_s_at) / RFU RHOB (11743442_s_at) / Fold change /veh RHOB (11743442_s_at) / RFU RGS16 (11720943_a_at) / Fold change /veh RGS16 (11720943_a_at) / RFU RGS16 (11720944_at) / Fold change /veh RGS16 (11720944_at) / RFU, VPS4B / Fold change vs veh, VPS4B / RFU, CREB1 / Fold change vs veh, CREB1 / RFU, DNAJC13 / Fold change vs veh, DNAJC13 / RFU, GNAQ / Fold change vs veh, GNAQ / RFU, CDK5R1 / Fold change vs veh, CDK5R1 / RFU, ZRANB3 / Fold change vs veh, ZRANB3 / RFU, CUL4A / Fold change vs veh, CUL4A / RFU, CCNY / Fold change vs veh, CCNY / RFU, UFL1 / Fold change vs veh, UFL1 / RFU, COG3 / Fold change vs veh, COG3 / RFU, DIAPH2 / Fold change vs veh, DIAPH2 / RFU, SKA2 / Fold change vs veh, SKA2 / RFU, AFF3 / Fold change vs veh, AFF3 / RFU, LMF1 / Fold change vs veh, LMF1 / RFU, IPO11 / Fold change vs veh, IPO11 / RFU, DFFB / Fold change vs veh, DFFB / RFU, FOXP1 / Fold change vs veh, FOXP1 / RFU, CARD8 / Fold change vs veh, CARD8 / RFU, STRN3 / Fold change vs veh, STRN3 / RFU, ADK / Fold change vs veh, ADK / RFU, RASSF2 / Fold change vs veh, RASSF2 / RFU, WIPF1 / Fold change vs veh, WIPF1 / RFU, LARP1B / Fold change vs veh, LARP1B / RFU, RASA1 / Fold change vs veh, RASA1 / RFU, RB1 / Fold change vs veh, RB1 / RFU, PPFIA1 / Fold change vs veh, PPFIA1 / RFU, MAT2A / Fold change vs veh, MAT2A / RFU, CCT5 / Fold change vs veh, CCT5 / RFU, WDR92 / Fold change vs veh, WDR92 / RFU, CUX1 / Fold change vs veh, CUX1 / RFU, TTC7A / Fold change vs veh, TTC7A / RFU, TMEM135 / Fold change vs veh, TMEM135 / RFU, DEPTOR / Fold change vs veh, DEPTOR / RFU, CPM / Fold change vs veh, CPM / RFU, DNAJB6 / Fold change vs veh, DNAJB6 / RFU, CACNA2D3 / Fold change vs veh, CACNA2D3 / RFU, DTX4 / Fold change vs veh, DTX4 / RFU, TFCP2 / Fold change vs veh, TFCP2 / RFU, GMCL1 /// GMCL1P1 / Fold change vs veh, GMCL1 /// GMCL1P1 / RFU, AEBP2 / Fold change vs veh, AEBP2 / RFU, SNHG1 /// SNORD22 /// SNORD25 /// SNORD26 /// SNORD27 /// SNORD28 /// SNORD29 /// SNORD31 / Fold change vs veh, SNHG1 /// SNORD22 /// SNORD25 /// SNORD26 /// SNORD27 /// SNORD28 /// SNORD29 /// SNORD31 / Fold change (Aza/veh), C12orf56 (ProbeSet 11735607_a_at) / Fold change (ACY-1035/veh), C12orf56 (ProbeSet 11735607_a_at) / Fold change (Aza/veh), FGFR1OP (ProbeSet 11751329_s_at) / Fold change (ACY-1035/veh), FGFR1OP (ProbeSet 11751329_s_at) / Fold change (Aza/veh), VPS36 (ProbeSet 11739960_a_at) / Fold change (ACY-1035/veh), VPS36 (ProbeSet 11739960_a_at) / RFU SYPL1 (11715823_x_at) / Fold change /veh SYPL1 (11715823_x_at) / RFU IGFBP7 (11715501_s_at) / Fold change /veh IGFBP7 (11715501_s_at) / RFU REEP3 (11722064_at) / Fold change /veh REEP3 (11722064_at) / RFU IGLL1 (11728026_x_at) / Fold change /veh IGLL1 (11728026_x_at): dose or concentration left out as unconfirmed. Particulars: ProbeSet 11758919_x_at; LIST D.

The results in this text go back to publication PMC5218480 (PLoS ONE, 2017).

Turning to `Nc1ncn([C@@H]2O[C@H](CO)[C@@H](O)[C@H]2O)c(=O)n1` [azacitidine], the “RFU, TFCP2” value came to 66.08 RFU.
